From ChEMBL document CHEMBL4219088, “Novel 4-aminoquinazoline derivatives induce growth inhibition, cell cycle arrest and apoptosis via PI3Kα inhibition” (Bioorg Med Chem, 2018)

Key:
Type in all cases: functional, cell-based
MDA-MB-231 = test: Antiproliferative activity against human MDA-MB-231 cells after 72 hrs by sulforhodamine B assay; settings: MDA-MB-231, 72 h
HCT-116 = test: Antiproliferative activity against human HCT116 cells after 72 hrs by sulforhodamine B assay; settings: HCT-116, 72 h
SNU-638 = test: Antiproliferative activity against human SNU638 cells after 72 hrs by sulforhodamine B assay; settings: SNU-638, 72 h
A549 = test: Antiproliferative activity against human A549 cells after 72 hrs by sulforhodamine B assay; settings: A549, 72 h
MCF7 = test: Antiproliferative activity against human MCF7 cells after 72 hrs by sulforhodamine B assay; settings: MCF7, 72 h
SK-HEP1 = test: Antiproliferative activity against human SKHEP1 cells after 72 hrs by sulforhodamine B assay; settings: SK-HEP1, 72 h

Row | IC50 (MDA-MB-231) [µM] | IC50 (HCT-116) [µM] | IC50 (SNU-638) [µM] | IC50 (A549) [µM] | IC50 (MCF7) [µM] | IC50 (SK-HEP1) [µM] | SMILES
1 | 0.38 | 2.74 | 3.96 | 0.62 | 28.9 | 0.84 | COc1ncc(-c2ccc3ncnc(NCCN4CCOCC4)c3c2)cc1NS(=O)(=O)c1ccc(F)cc1F
2 | 0.71 | 1.44 | 0.62 | 0.94 | 1.02 | 4.72 | COc1ncc(-c2ccc3ncnc(NCCN(C)C)c3c2)cc1NS(=O)(=O)c1ccc(F)cc1F
3 | 4.32 | 5.72 | 6.66 | 9.42 | 18.7 | 8.98 | CCCCS(=O)(=O)Nc1cc(-c2ccc3ncnc(NCc4ccncc4)c3c2)cnc1OC
